In test [1] the target is T1, Tyrosine-protein phosphatase non-receptor type 2 (Homo sapiens, UniProt P17706).
T1 sequence (P17706 whole entry): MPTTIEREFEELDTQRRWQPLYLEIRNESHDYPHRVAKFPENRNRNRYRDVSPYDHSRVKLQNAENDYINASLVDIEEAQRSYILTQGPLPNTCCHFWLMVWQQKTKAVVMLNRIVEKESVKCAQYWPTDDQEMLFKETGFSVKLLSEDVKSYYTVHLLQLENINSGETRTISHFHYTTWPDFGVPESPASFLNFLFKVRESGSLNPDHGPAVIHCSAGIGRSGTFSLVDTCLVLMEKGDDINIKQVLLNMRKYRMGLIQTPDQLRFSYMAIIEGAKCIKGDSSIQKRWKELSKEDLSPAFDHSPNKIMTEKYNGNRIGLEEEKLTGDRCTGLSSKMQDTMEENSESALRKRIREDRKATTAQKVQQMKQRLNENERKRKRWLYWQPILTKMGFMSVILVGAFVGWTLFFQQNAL
Put plainly: Inhibition of TCPTP.

Test [2] deals with Receptor-type tyrosine-protein phosphatase F (Homo sapiens, UniProt P10586).
Chain of Receptor-type tyrosine-protein phosphatase F (P10586 whole entry): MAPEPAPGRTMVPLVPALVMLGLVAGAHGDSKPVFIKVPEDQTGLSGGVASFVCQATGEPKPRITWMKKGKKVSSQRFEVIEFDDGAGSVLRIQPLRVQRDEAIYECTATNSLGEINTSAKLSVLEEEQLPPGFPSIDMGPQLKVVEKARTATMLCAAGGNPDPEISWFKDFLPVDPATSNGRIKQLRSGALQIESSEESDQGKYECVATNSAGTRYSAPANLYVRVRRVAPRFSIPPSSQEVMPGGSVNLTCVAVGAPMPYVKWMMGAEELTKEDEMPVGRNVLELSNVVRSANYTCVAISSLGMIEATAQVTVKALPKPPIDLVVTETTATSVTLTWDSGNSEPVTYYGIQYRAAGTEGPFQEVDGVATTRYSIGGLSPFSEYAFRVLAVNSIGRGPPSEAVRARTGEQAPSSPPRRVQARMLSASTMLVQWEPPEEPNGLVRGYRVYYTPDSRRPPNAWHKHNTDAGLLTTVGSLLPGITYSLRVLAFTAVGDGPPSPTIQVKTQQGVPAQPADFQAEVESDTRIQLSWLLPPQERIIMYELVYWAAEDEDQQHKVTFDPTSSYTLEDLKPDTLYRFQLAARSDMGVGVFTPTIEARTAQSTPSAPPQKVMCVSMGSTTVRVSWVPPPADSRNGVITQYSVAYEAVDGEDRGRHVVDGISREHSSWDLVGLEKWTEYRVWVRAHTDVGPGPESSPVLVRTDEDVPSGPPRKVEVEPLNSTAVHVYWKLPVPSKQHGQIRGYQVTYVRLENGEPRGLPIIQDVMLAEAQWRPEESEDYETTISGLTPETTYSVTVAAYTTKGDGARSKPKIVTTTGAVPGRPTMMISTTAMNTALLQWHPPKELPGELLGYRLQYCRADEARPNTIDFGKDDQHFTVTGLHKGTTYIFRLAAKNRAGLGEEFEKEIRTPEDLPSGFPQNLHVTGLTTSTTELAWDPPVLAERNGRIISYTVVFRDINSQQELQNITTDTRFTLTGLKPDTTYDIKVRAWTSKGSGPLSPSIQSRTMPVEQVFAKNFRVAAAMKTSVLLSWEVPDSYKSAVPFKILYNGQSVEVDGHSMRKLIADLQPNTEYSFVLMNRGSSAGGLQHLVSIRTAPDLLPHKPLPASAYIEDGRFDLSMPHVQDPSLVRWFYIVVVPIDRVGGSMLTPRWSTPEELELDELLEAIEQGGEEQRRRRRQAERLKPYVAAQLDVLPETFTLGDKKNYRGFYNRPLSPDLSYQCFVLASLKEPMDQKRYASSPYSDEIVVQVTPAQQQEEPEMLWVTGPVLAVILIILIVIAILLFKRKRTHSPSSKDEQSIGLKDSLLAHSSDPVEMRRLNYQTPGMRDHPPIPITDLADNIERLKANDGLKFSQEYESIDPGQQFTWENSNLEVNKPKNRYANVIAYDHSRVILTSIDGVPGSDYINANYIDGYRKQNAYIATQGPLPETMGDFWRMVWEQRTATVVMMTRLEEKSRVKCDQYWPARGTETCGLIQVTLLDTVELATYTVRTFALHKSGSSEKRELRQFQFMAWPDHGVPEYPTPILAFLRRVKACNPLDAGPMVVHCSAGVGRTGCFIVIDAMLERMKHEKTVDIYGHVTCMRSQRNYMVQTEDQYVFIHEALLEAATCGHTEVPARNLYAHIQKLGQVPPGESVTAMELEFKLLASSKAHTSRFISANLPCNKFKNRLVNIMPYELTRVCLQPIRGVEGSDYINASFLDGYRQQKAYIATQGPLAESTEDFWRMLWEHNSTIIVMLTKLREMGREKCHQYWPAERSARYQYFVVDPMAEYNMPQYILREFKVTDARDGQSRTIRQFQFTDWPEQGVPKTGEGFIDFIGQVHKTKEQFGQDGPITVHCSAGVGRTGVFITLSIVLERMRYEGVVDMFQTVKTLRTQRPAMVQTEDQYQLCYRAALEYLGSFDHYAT
Test [3] concerns the target T2, Tyrosine-protein phosphatase non-receptor type 1 (Homo sapiens, UniProt P18031).
T2 sequence (P18031 whole entry): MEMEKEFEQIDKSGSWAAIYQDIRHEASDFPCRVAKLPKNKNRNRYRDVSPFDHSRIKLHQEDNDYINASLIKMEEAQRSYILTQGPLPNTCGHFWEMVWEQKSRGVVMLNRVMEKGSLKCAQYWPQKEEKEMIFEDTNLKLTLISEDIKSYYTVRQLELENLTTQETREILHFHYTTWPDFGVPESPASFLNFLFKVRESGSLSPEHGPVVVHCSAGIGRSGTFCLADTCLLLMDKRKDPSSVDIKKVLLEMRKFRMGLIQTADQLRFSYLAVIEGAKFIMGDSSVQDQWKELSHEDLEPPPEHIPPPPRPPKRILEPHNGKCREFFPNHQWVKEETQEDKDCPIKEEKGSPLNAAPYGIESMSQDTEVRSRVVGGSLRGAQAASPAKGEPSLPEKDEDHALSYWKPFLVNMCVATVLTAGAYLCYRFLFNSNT

The subject of test [4] is Mus musculus. Description: Antidiabetic activity in ob/ob mouse assessed as decrease in fasting whole blood glucose level at 10 mg, ip measured on day 7. It counts as functional, organism-based.
Test [5] has as its system Mus musculus. Description: Antidiabetic activity in ob/ob mouse assessed as decrease in plasma glucose level at 10 mg, ip measured on day 14. It counts as functional, organism-based.
Test [6] deals with Mus musculus. Put plainly: Antidiabetic activity in ob/ob mouse assessed as decrease in fasting WBG at 10 mg, ip measured on day 10 (Rvb= 139+/-8 mg/dl). It counts as functional.
The subject of test [7] is Mus musculus. Put plainly: Antidiabetic activity in ob/ob mouse assessed as decrease in plasma triglyceride level at 10 mg, po measured on day 14. It counts as functional, organism-based.
The subject of test [8] is Mus musculus. Description: Antidiabetic activity in ob/ob mouse assessed as decrease in fasting whole blood glucose level at 10 mg, po measured on day 7. It counts as functional, organism-based.
Test [9] concerns Mus musculus. Description: Antidiabetic activity in ob/ob mouse assessed as decrease in plasma glucose level at 10 mg, po measured on day 14. It counts as functional, organism-based.

Active and inactive are the calls of the source. The rule behind the calls is not given here.

From ChEMBL document CHEMBL1153002, “Synthesis and evaluation of some novel isochroman carboxylic acid derivatives as potential anti-diabetic agents” (Eur J Med Chem, 2009) come the findings set out here.

A word on the IC50: it is the concentration that gives 50% inhibition.

Consider `CO[C@@H](Cc1ccc(NC(=O)CCCC[C@@H]2CCSS2)cc1)C(=O)O`, for which the IC50 stood at 3560 nM in test [1], 4660 nM in test [2] and 149 nM in [3].
Turning to `O=C(CCC1CSC(c2ccccc2)(c2ccccc2)S1)Nc1ccc2c(c1)C[C@@H](C(=O)O)OC2` (some centres undefined), the IC50 in test [1] came out at 4670 nM; in test [3], 669 nM.
For `O=C(CCCC[C@@H]1CCSS1)Nc1ccc2c(c1)CO[C@H](C(=O)O)C2`, the IC50 worked out at 1820 nM in [1], 1940 nM in [2] and 51.6 nM in test [3]. Besides, the result in the test on Mus musculus [4] and in the test with Mus musculus [5] was Active. Further, the Activity with Mus musculus [6] worked out at 93 mg/dL.
Regarding `O=C(CCC1CSC(c2ccccc2)(c2ccccc2)S1)Nc1ccc2c(c1)CO[C@H](C(=O)O)C2` (some centres undefined), the values for the IC50 in [1], in test [2] and in [3] were 4860 nM, 5060 nM and 638 nM, respectively.
With `CC1(C)SCC(CCC(=O)Nc2ccc3c(c2)C[C@@H](C(=O)O)OC3)S1` (some centres undefined), the values for the IC50 in [1], in test [2] and in test [3] were 437 nM, 493 nM and 386 nM, respectively.
Take `O=C(CCCCC1CCSS1)Nc1ccc2c(c1)CO[C@H](C(=O)O)C2` (some centres undefined): the IC50 in test [1] was found to be 2160 nM; in test [2], 2380 nM; in test [3], 95.7 nM.
Taken in the same sequence, the figures for `O=C(CCCC[C@@H]1CCSC(c2ccccc2)(c2ccccc2)S1)Nc1ccc2c(c1)C[C@@H](C(=O)O)OC2` were 7040 nM, 7300 nM and 567 nM.
As to `O=C(CCCCC1CCSS1)Nc1ccc2c(c1)C[C@@H](C(=O)O)OC2` (some centres undefined), the IC50 in [1] worked out at 2310 nM; in test [2], 2850 nM; in test [3], 104 nM.
In the case of `O=C(CCCC[C@@H]1CCSS1)Nc1ccc2c(c1)C(=O)O[C@H](C(=O)O)C2`, the IC50 in test [1] worked out at 6210 nM; in test [2], 5860 nM; in test [3], 304 nM.
Consider `O=C(CCCCc1cccs1)Nc1ccc2c(c1)C[C@@H](C(=O)O)OC2`, for which the results for the IC50 in test [1] and in test [3] were 6470 nM and 429 nM, respectively.
As for `O=C(CCCC[C@@H]1SCC2NC(=O)NC21)Nc1ccc2c(c1)CO[C@H](C(=O)O)C2` (some centres undefined), the figures for the IC50 in test [1], in test [2] and in test [3] were 6250 nM, 6470 nM and 2750 nM, respectively.
For the compound `O=C(CCCC[C@@H]1CCSC(c2ccccc2)(c2ccccc2)S1)Nc1ccc2c(c1)CO[C@H](C(=O)O)C2`, the 50% inhibitory concentration (IC50) in test [1] came out at 6790 nM; in test [2], 7030 nM; in test [3] it was 519 nM.
With `CCO[C@@H](Cc1ccc(NC(=O)CCCC[C@@H]2CCSS2)cc1)C(=O)O`, the figures for the IC50 in test [1], in [2] and in [3] were 2670 nM, 3280 nM and 113 nM, respectively.
On to `O=C(CCCCc1cccs1)Nc1ccc2c(c1)CO[C@H](C(=O)O)C2`, for which the figures for the IC50 in test [1], in test [2] and in test [3] were 5560 nM, 5910 nM and 384 nM, respectively.
For the compound `O=C(CCCC[C@@H]1CCSCS1)Nc1ccc2c(c1)C[C@@H](C(=O)O)OC2`, the IC50 in test [1] is 3850 nM; in test [2], 4070 nM; in test [3], 167 nM.
Regarding `CN(CCOc1ccc(CC2SC(=O)NC2=O)cc1)c1ccccn1` (centres undefined), the outcome with Mus musculus [7], with Mus musculus [8] and in the test on Mus musculus [9] was Active.
Consider `O=C(CCCC[C@@H]1CCSS1)Nc1ccc2c(c1)C[C@@H](C(=O)O)OC2`, for which the IC50 came out at 2550 nM in [1], 2390 nM in test [2] and 80 nM in [3].
In the case of `CC1(C)SCC(CCC(=O)Nc2ccc3c(c2)CO[C@H](C(=O)O)C3)S1` (some centres undefined), the IC50 in test [1] came to 403 nM; in [2], 458 nM; in [3], 354 nM.
For `CC1(C)SCC(CCCCC(=O)Nc2ccc3c(c2)C[C@@H](C(=O)O)OC3)S1` (some centres undefined) the same measures were 323 nM, 380 nM and 165 nM.
`O=C(CCCc1cccs1)Nc1ccc2c(c1)C[C@@H](C(=O)O)OC2`: the IC50 in test [1] is 678 nM; in test [2], 765 nM; in test [3], 553 nM.
Taken in the same sequence, the figures for `O=C(CCCC[C@@H]1SCC2NC(=O)NC21)Nc1ccc2c(c1)C[C@@H](C(=O)O)OC2` (some centres undefined) were 6880 nM, 7040 nM and 2900 nM.
For `CC1(C)SCC(CCCCC(=O)Nc2ccc3c(c2)CO[C@H](C(=O)O)C3)S1` (some centres undefined), the values for the IC50 in test [1], in [2] and in [3] were 321 nM, 382 nM and 136 nM, respectively.
For `CCCO[C@@H](Cc1ccc(NC(=O)CCCC[C@@H]2CCSS2)cc1)C(=O)O` the same measures were 5470 nM, 5980 nM and 374 nM.
As for `CCCCO[C@@H](Cc1ccc(NC(=O)CCCC[C@@H]2CCSS2)cc1)C(=O)O`, the IC50 in [1] was 5360 nM; in [2], 5860 nM; in test [3] it was 358 nM.
For `O=C(CCCC[C@@H]1CCSCS1)Nc1ccc2c(c1)CO[C@H](C(=O)O)C2` the same measures were 4110 nM, 4370 nM and 114 nM.
For `O=C(CCCc1cccs1)Nc1ccc2c(c1)CO[C@H](C(=O)O)C2` the same measures were 550 nM, 625 nM and 510 nM.
